Laboratory results: article PMC8117417, “Novel Trifluoromethyl Pyrimidinone Compounds With Activity Against Mycobacterium tuberculosis” (Frontiers in Chemistry, 2021)
Converted amounts (≈) assume the structure as drawn. “And” between values parts separate entries of the source, which are not always exact repeats. Equal values may be shown once.

System: Pseudomonas aeruginosa BAA 47
Assay: Spectrum: MIC99 on solid medium, agar serial dilution
Type: cell-based
Set-up: unit not given here
Conditions: minimum concentration required to reduce CFUs by 99%, two independent runs

SMILES | MIC99 P. aeruginosa
CCc1c(C(F)(F)F)nc(-c2ccccn2)[nH]c1=O [Compound 55, 5-Ethyl-2-(Pyridin-2-yl)-6-(Trifluoromethyl)Pyrimidin-4(3H)-One] | >100
Cc1c(C(F)(F)F)nc(-c2ccccn2)[nH]c1=O [Compound 10, 5-Methyl-2-(Pyridin-2-yl)-6-(Trifluoromethyl)Pyrimidin-4(3H)-One] | >100
O=c1[nH]c(-c2ccccn2)nc(C(F)(F)F)c1-c1ccc(F)cc1 [Compound 53, 5-(4-Fluorophenyl)-2-(Pyridin-2-yl)-6-(Trifluoromethyl)Pyrimidin-4(3H)-One] | >100
O=c1[nH]c(-c2ccccn2)nc(C(F)(F)F)c1Cc1ccc(F)cc1 [Compound 5, 5-(4-Fluorobenzyl)-2-(Pyridin-2-yl)-6-(Trifluoromethyl)Pyrimidin-4(3H)-One] | >100
Cc1c(C(F)(F)F)nc(-c2ncccc2O)[nH]c1=O [Compound 33, 2-(3-Hydroxypyridin-2-yl)-5-Methyl-6-(Trifluoromethyl)Pyrimidin-4(3H)-One] | >100

System: K. pneumoniae
Assay: as above
Type: cell-based
Set-up: unit not given here
Conditions: minimum concentration required to reduce CFUs by 99%, two independent runs
Experimental: Minimum inhibitory concentration to inhibit growth of 99% (MIC99) on solid medium was determined using the agar serial dilution method. Late log phase cultures were plated at ~10^5 colony-forming units (CFU)/mL onto solid medium containing 2-fold serial dilutions of compounds. The MIC99 is defined as the lowest concentration with ≤1% growth.

SMILES | MIC99 K. pneumoniae
CCc1c(C(F)(F)F)nc(-c2ccccn2)[nH]c1=O [Compound 55, 5-Ethyl-2-(Pyridin-2-yl)-6-(Trifluoromethyl)Pyrimidin-4(3H)-One] | >100
Cc1c(C(F)(F)F)nc(-c2ccccn2)[nH]c1=O [Compound 10, 5-Methyl-2-(Pyridin-2-yl)-6-(Trifluoromethyl)Pyrimidin-4(3H)-One] | >100
O=c1[nH]c(-c2ccccn2)nc(C(F)(F)F)c1-c1ccc(F)cc1 [Compound 53, 5-(4-Fluorophenyl)-2-(Pyridin-2-yl)-6-(Trifluoromethyl)Pyrimidin-4(3H)-One] | >100
O=c1[nH]c(-c2ccccn2)nc(C(F)(F)F)c1Cc1ccc(F)cc1 [Compound 5, 5-(4-Fluorobenzyl)-2-(Pyridin-2-yl)-6-(Trifluoromethyl)Pyrimidin-4(3H)-One] | >100
Cc1c(C(F)(F)F)nc(-c2ncccc2O)[nH]c1=O [Compound 33, 2-(3-Hydroxypyridin-2-yl)-5-Methyl-6-(Trifluoromethyl)Pyrimidin-4(3H)-One] | >100

System: Mycobacterium smegmatis mc^2155
Assay: as above
Type: cell-based
Set-up: unit not given here
Conditions: minimum concentration required to reduce CFUs by 99%, two independent runs

SMILES | MIC99 M. smegmatis
CCc1c(C(F)(F)F)nc(-c2ccccn2)[nH]c1=O [Compound 55, 5-Ethyl-2-(Pyridin-2-yl)-6-(Trifluoromethyl)Pyrimidin-4(3H)-One] | 100
Cc1c(C(F)(F)F)nc(-c2ccccn2)[nH]c1=O [Compound 10, 5-Methyl-2-(Pyridin-2-yl)-6-(Trifluoromethyl)Pyrimidin-4(3H)-One] | 25
O=c1[nH]c(-c2ccccn2)nc(C(F)(F)F)c1-c1ccc(F)cc1 [Compound 53, 5-(4-Fluorophenyl)-2-(Pyridin-2-yl)-6-(Trifluoromethyl)Pyrimidin-4(3H)-One] | >100
O=c1[nH]c(-c2ccccn2)nc(C(F)(F)F)c1Cc1ccc(F)cc1 [Compound 5, 5-(4-Fluorobenzyl)-2-(Pyridin-2-yl)-6-(Trifluoromethyl)Pyrimidin-4(3H)-One] | >100
Cc1c(C(F)(F)F)nc(-c2ncccc2O)[nH]c1=O [Compound 33, 2-(3-Hydroxypyridin-2-yl)-5-Methyl-6-(Trifluoromethyl)Pyrimidin-4(3H)-One] | 25

System: not given
Assay: not given
Conditions: not given

SMILES | melting point [°C]
CCc1c(C(F)(F)F)nc(-c2ccccn2)[nH]c1=O [Compound 55, 5-Ethyl-2-(Pyridin-2-yl)-6-(Trifluoromethyl)Pyrimidin-4(3H)-One] | 122 to 124
O=c1[nH]c(-c2ccccn2)nc(C(F)(F)F)c1-c1ccc(F)cc1 [Compound 53, 5-(4-Fluorophenyl)-2-(Pyridin-2-yl)-6-(Trifluoromethyl)Pyrimidin-4(3H)-One] | 217 to 220
O=c1[nH]c(-c2ccccn2)nc(C(F)(F)F)c1Cc1ccc(F)cc1 [Compound 5, 5-(4-Fluorobenzyl)-2-(Pyridin-2-yl)-6-(Trifluoromethyl)Pyrimidin-4(3H)-One] | 183 to 185
Cc1c(C(F)(F)F)nc(-c2ncccc2O)[nH]c1=O [Compound 33, 2-(3-Hydroxypyridin-2-yl)-5-Methyl-6-(Trifluoromethyl)Pyrimidin-4(3H)-One] | 176 to 178
Cc1cccc(C)c1-c1nc(C(F)(F)F)cc(=O)[nH]1 [Compound 29, 2-(2,6-Dimethylphenyl)-6-(Trifluoromethyl)Pyrimidin-4(3H)-One] | 201 to 202
O=c1cc(C(F)(F)F)nc(C2CCCCC2)[nH]1 [Compound 27, 2-Cyclohexyl-6-(Trifluoromethyl)Pyrimidin-4(3H)-One] | 198 to 199

System: Staphylococcus aureus RN4220
Assay: Spectrum: MIC99 on solid medium, agar serial dilution
Type: cell-based
Set-up: unit not given here
Conditions: minimum concentration required to reduce CFUs by 99%, values of two independent runs

SMILES | MIC99 S. aureus
CCc1c(C(F)(F)F)nc(-c2ccccn2)[nH]c1=O [Compound 55, 5-Ethyl-2-(Pyridin-2-yl)-6-(Trifluoromethyl)Pyrimidin-4(3H)-One] | 6.3 and 5.0
Cc1c(C(F)(F)F)nc(-c2ccccn2)[nH]c1=O [Compound 10, 5-Methyl-2-(Pyridin-2-yl)-6-(Trifluoromethyl)Pyrimidin-4(3H)-One] | 12.5, 12.5
O=c1[nH]c(-c2ccccn2)nc(C(F)(F)F)c1-c1ccc(F)cc1 [Compound 53, 5-(4-Fluorophenyl)-2-(Pyridin-2-yl)-6-(Trifluoromethyl)Pyrimidin-4(3H)-One] | 3.1, 3.1
O=c1[nH]c(-c2ccccn2)nc(C(F)(F)F)c1Cc1ccc(F)cc1 [Compound 5, 5-(4-Fluorobenzyl)-2-(Pyridin-2-yl)-6-(Trifluoromethyl)Pyrimidin-4(3H)-One] | 1.6, 1.6
Cc1c(C(F)(F)F)nc(-c2ncccc2O)[nH]c1=O [Compound 33, 2-(3-Hydroxypyridin-2-yl)-5-Methyl-6-(Trifluoromethyl)Pyrimidin-4(3H)-One] | 3.1, 3.1

System: M. tuberculosis H37Rv
Assay: Minimum inhibitory concentration (IC90) against fluorescent M. tuberculosis in liquid culture
Conditions: MTB IC90 assay; Figure 1 primary hits and reference drugs in this assay

SMILES | MIC [µM]
Cc1c(C(F)(F)F)nc(-c2ccccn2)[nH]c1=O [Compound 10, 5-Methyl-2-(Pyridin-2-yl)-6-(Trifluoromethyl)Pyrimidin-4(3H)-One] | 2.9 ± 0.47 (≈ 0.74 µg/mL)
O=c1[nH]c(-c2ccccn2)nc(C(F)(F)F)c1Cc1ccc(F)cc1 [Compound 5, 5-(4-Fluorobenzyl)-2-(Pyridin-2-yl)-6-(Trifluoromethyl)Pyrimidin-4(3H)-One] | 1.7 ± 0.41 (≈ 0.594 µg/mL)

Same assay, conditions: read-out: MTB IC90; concentration required to inhibit M. tuberculosis growth by 90%; aerobic culture, 5 days, 7H9-OADC-Tw

SMILES | IC90 [µM]
CCc1c(C(F)(F)F)nc(-c2ccccn2)[nH]c1=O [Compound 55, 5-Ethyl-2-(Pyridin-2-yl)-6-(Trifluoromethyl)Pyrimidin-4(3H)-One] | 3.7 ± 0.26
Cc1c(C(F)(F)F)nc(-c2ccccn2)[nH]c1=O [Compound 10, 5-Methyl-2-(Pyridin-2-yl)-6-(Trifluoromethyl)Pyrimidin-4(3H)-One] | 2.9
O=c1[nH]c(-c2ccccn2)nc(C(F)(F)F)c1-c1ccc(F)cc1 [Compound 53, 5-(4-Fluorophenyl)-2-(Pyridin-2-yl)-6-(Trifluoromethyl)Pyrimidin-4(3H)-One] | 3.8 ± 1.6
O=c1[nH]c(-c2ccccn2)nc(C(F)(F)F)c1Cc1ccc(F)cc1 [Compound 5, 5-(4-Fluorobenzyl)-2-(Pyridin-2-yl)-6-(Trifluoromethyl)Pyrimidin-4(3H)-One] | 1.7 ± 0.41
Cc1c(C(F)(F)F)nc(-c2ncccc2O)[nH]c1=O [Compound 33, 2-(3-Hydroxypyridin-2-yl)-5-Methyl-6-(Trifluoromethyl)Pyrimidin-4(3H)-One] | 2.5 ± 1.1
Cc1cccc(C)c1-c1nc(C(F)(F)F)cc(=O)[nH]1 [Compound 29, 2-(2,6-Dimethylphenyl)-6-(Trifluoromethyl)Pyrimidin-4(3H)-One] | > 20
O=c1cc(C(F)(F)F)nc(C2CCCCC2)[nH]1 [Compound 27, 2-Cyclohexyl-6-(Trifluoromethyl)Pyrimidin-4(3H)-One] | > 20

System: Bacillus subtilis Marburg
Assay: Spectrum: MIC99 on solid medium, agar serial dilution
Type: cell-based
Set-up: unit not given here
Conditions: minimum concentration required to reduce CFUs by 99%, values of two independent runs

SMILES | MIC99 B. subtilis
CCc1c(C(F)(F)F)nc(-c2ccccn2)[nH]c1=O [Compound 55, 5-Ethyl-2-(Pyridin-2-yl)-6-(Trifluoromethyl)Pyrimidin-4(3H)-One] | 6.3 and 5.0
Cc1c(C(F)(F)F)nc(-c2ccccn2)[nH]c1=O [Compound 10, 5-Methyl-2-(Pyridin-2-yl)-6-(Trifluoromethyl)Pyrimidin-4(3H)-One] | 12.5, 12.5
O=c1[nH]c(-c2ccccn2)nc(C(F)(F)F)c1-c1ccc(F)cc1 [Compound 53, 5-(4-Fluorophenyl)-2-(Pyridin-2-yl)-6-(Trifluoromethyl)Pyrimidin-4(3H)-One] | 6.3, 6.3
O=c1[nH]c(-c2ccccn2)nc(C(F)(F)F)c1Cc1ccc(F)cc1 [Compound 5, 5-(4-Fluorobenzyl)-2-(Pyridin-2-yl)-6-(Trifluoromethyl)Pyrimidin-4(3H)-One] | 12.5 and 6.3

System: Saccharomyces cerevisiae Y187
Assay: as above
Type: cell-based
Set-up: unit not given here
Conditions: minimum concentration required to reduce CFUs by 99%, values of two independent runs

SMILES | MIC99 S. cerevisiae
CCc1c(C(F)(F)F)nc(-c2ccccn2)[nH]c1=O [Compound 55, 5-Ethyl-2-(Pyridin-2-yl)-6-(Trifluoromethyl)Pyrimidin-4(3H)-One] | 3.1 and 5.0
Cc1c(C(F)(F)F)nc(-c2ccccn2)[nH]c1=O [Compound 10, 5-Methyl-2-(Pyridin-2-yl)-6-(Trifluoromethyl)Pyrimidin-4(3H)-One] | 6.3 and 12.5
O=c1[nH]c(-c2ccccn2)nc(C(F)(F)F)c1Cc1ccc(F)cc1 [Compound 5, 5-(4-Fluorobenzyl)-2-(Pyridin-2-yl)-6-(Trifluoromethyl)Pyrimidin-4(3H)-One] | 3.1, 3.1
Cc1c(C(F)(F)F)nc(-c2ncccc2O)[nH]c1=O [Compound 33, 2-(3-Hydroxypyridin-2-yl)-5-Methyl-6-(Trifluoromethyl)Pyrimidin-4(3H)-One] | 3.1, 3.1

System: Escherichia coli DH5α
Assay: as above
Type: cell-based
Set-up: unit not given here
Conditions: minimum concentration required to reduce CFUs by 99%, two independent runs

SMILES | MIC99 E. coli
CCc1c(C(F)(F)F)nc(-c2ccccn2)[nH]c1=O [Compound 55, 5-Ethyl-2-(Pyridin-2-yl)-6-(Trifluoromethyl)Pyrimidin-4(3H)-One] | >100
Cc1c(C(F)(F)F)nc(-c2ccccn2)[nH]c1=O [Compound 10, 5-Methyl-2-(Pyridin-2-yl)-6-(Trifluoromethyl)Pyrimidin-4(3H)-One] | >100
O=c1[nH]c(-c2ccccn2)nc(C(F)(F)F)c1-c1ccc(F)cc1 [Compound 53, 5-(4-Fluorophenyl)-2-(Pyridin-2-yl)-6-(Trifluoromethyl)Pyrimidin-4(3H)-One] | >100
O=c1[nH]c(-c2ccccn2)nc(C(F)(F)F)c1Cc1ccc(F)cc1 [Compound 5, 5-(4-Fluorobenzyl)-2-(Pyridin-2-yl)-6-(Trifluoromethyl)Pyrimidin-4(3H)-One] | >100
Cc1c(C(F)(F)F)nc(-c2ncccc2O)[nH]c1=O [Compound 33, 2-(3-Hydroxypyridin-2-yl)-5-Methyl-6-(Trifluoromethyl)Pyrimidin-4(3H)-One] | >100

System: HepG2 human liver cells
Assay: Cytotoxicity against HepG2 cells (CellTiter-Glo)
Type: cell-based
Conditions: Homo sapiens, HepG2, 72 h, concentration required to inhibit growth of HepG2 cells by 50%; 72 h exposure
Experimental: Cytotoxicity was measured after 72 h of compound exposure at 37°C and 5% CO2 using CellTiter-Glo (Promega).

SMILES | IC50 [µM]
CCc1c(C(F)(F)F)nc(-c2ccccn2)[nH]c1=O [Compound 55, 5-Ethyl-2-(Pyridin-2-yl)-6-(Trifluoromethyl)Pyrimidin-4(3H)-One] | 6.1 ± 1.3
Cc1c(C(F)(F)F)nc(-c2ccccn2)[nH]c1=O [Compound 10, 5-Methyl-2-(Pyridin-2-yl)-6-(Trifluoromethyl)Pyrimidin-4(3H)-One] | 7.3
O=c1[nH]c(-c2ccccn2)nc(C(F)(F)F)c1-c1ccc(F)cc1 [Compound 53, 5-(4-Fluorophenyl)-2-(Pyridin-2-yl)-6-(Trifluoromethyl)Pyrimidin-4(3H)-One] | 11 ± 6.9
O=c1[nH]c(-c2ccccn2)nc(C(F)(F)F)c1Cc1ccc(F)cc1 [Compound 5, 5-(4-Fluorobenzyl)-2-(Pyridin-2-yl)-6-(Trifluoromethyl)Pyrimidin-4(3H)-One] | 3.2 ± 1.5
Cc1c(C(F)(F)F)nc(-c2ncccc2O)[nH]c1=O [Compound 33, 2-(3-Hydroxypyridin-2-yl)-5-Methyl-6-(Trifluoromethyl)Pyrimidin-4(3H)-One] | 3.2 ± 1.6
Cc1cccc(C)c1-c1nc(C(F)(F)F)cc(=O)[nH]1 [Compound 29, 2-(2,6-Dimethylphenyl)-6-(Trifluoromethyl)Pyrimidin-4(3H)-One] | > 100
O=c1cc(C(F)(F)F)nc(C2CCCCC2)[nH]1 [Compound 27, 2-Cyclohexyl-6-(Trifluoromethyl)Pyrimidin-4(3H)-One] | 90 ± 17

Same assay, conditions: concentration required to inhibit growth of HepG2 cells by 50%; 72 h exposure

SMILES | IC50 [µM]
Cc1c(C(F)(F)F)nc(-c2ccccn2)[nH]c1=O [Compound 10, 5-Methyl-2-(Pyridin-2-yl)-6-(Trifluoromethyl)Pyrimidin-4(3H)-One] | 5.4 ± 3.1
